According to patent publication US4107424A, “1-N-[(S)-α-hydroxy-ω-aminoacyl] derivatives of 3',4'-dideoxykanamycin B and 3'-deoxykanamycin B antibiotics” (Zaidan Hojin Biseibutsu Kagaku Kenkyu Kai, priority 1972, dated 1978):
Values after ≈ are worked out from the molar mass of the structure shown. Like-named read-outs stand apart in the source and are kept apart here.

How the values were obtained:
[1] = test system: Bacillus subtilis NRRL B-558; experiment: Minimal inhibitory concentration, agar dilution streak method; assay type: cell-based; details: NRRLB558, nutrient agar, 37° C, 18 hours
Method: (§1) [α]D^22 + 38°, (c 0.85, water).
(§2) *Agar Agar dilution streak method (nutrient agar, 37° C, 18 hours)
(§3) *Agar dilution streak method (nutrient agar, 37° C, 18 hours).

[2] = test system: Escherichia coli J 5 R 11-2; experiment: as above; assay type: cell-based; details: J5R112, 18 h, read-out: Minimal inhibitory concentration
Method: as §1, §2, §3

[3] = test system: Escherichia coli K-12 C 600 R 135; experiment: as above; assay type: cell-based; details: 18 h, read-out: Minimal inhibitory concentration
Method: as §1, §2, §3

[4] = test system: Escherichia coli K-12 R-5; experiment: as above; assay type: cell-based; details: K12R5, nutrient agar, 37° C, 18 hours
Method: as §1, §2, §3

Escherichia coli NIHJ = experiment: as above; assay type: cell-based; details: nutrient agar, 37° C, 18 hours
Method: as §1, §2, §3

[5] = test system: Klebsiella pneumoniae PCI 602; experiment: as above; assay type: cell-based; details: PCI602, nutrient agar, 37° C, 18 hours
Method: as §1, §2, §3

Proteus rettgeri GN 311 = experiment: as above; assay type: cell-based; details: Providencia rettgeri, GN311; nutrient agar, 37° C, 18 hours
Method: as §1, §2, §3

Proteus rettgeri GN 466 = experiment: as above; assay type: cell-based; details: Providencia rettgeri, GN466; nutrient agar, 37° C, 18 hours
Method: as §1, §2, §3

[6] = test system: Pseudomonas aeruginosa 99; experiment: as above; assay type: cell-based; details: nutrient agar, 37° C, 18 hours
Method: as §1, §2, §3

Salmonella typhosa T-63 = experiment: as above; assay type: cell-based; details: Salmonella enterica, nutrient agar, 37° C, 18 hours
Method: as §1, §2, §3

Sarcina lutea PCI 1001 = experiment: as above; assay type: cell-based; details: Micrococcus luteus, PCI1001; nutrient agar, 37° C, 18 hours; read-out: Minimal inhibitory concentration
Method: as §1, §2, §3

[7] = test system: Escherichia coli K-12 JR 66/W 677; experiment: as above; assay type: cell-based; details: Escherichia coli, 18 h
Method: as §2, §3

[8] = test system: Escherichia coli K-12 LA 290 R 55; experiment: as above; assay type: cell-based; details: 18 h
Method: as §2, §3

[9] = test system: Escherichia coli K-12 LA 290 R 56; experiment: as above; assay type: cell-based; details: 18 h
Method: as §2, §3

[10] = test system: Escherichia coli K-12 LA 290 R 64; experiment: as above; assay type: cell-based; details: nutrient agar, 37° C, 18 hours
Method: as §2, §3

[11] = test system: Escherichia coli K-12 ML 1410 R 81; experiment: as above; assay type: cell-based; details: 18 h
Method: as §2, §3

[12] = test system: Escherichia coli K-12 ML 1410; experiment: as above; assay type: cell-based; details: K12ML1410, nutrient agar, 37° C, 18 hours
Method: as §2, §3

[13] = test system: Escherichia coli K-12 ML 1629; experiment: as above; assay type: cell-based; details: K12ML1629, nutrient agar, 37° C, 18 hours
Method: as §2, §3

[14] = test system: Escherichia coli K-12 ML 1630; experiment: as above; assay type: cell-based; details: K12ML1630, nutrient agar, 37° C, 18 hours
Method: as §2, §3

[15] = test system: Escherichia coli K-12 W 677; experiment: as above; assay type: cell-based; details: K12W677, nutrient agar, 37° C, 18 hours
Method: as §2, §3

Escherichia coli K-12 = experiment: as above; assay type: cell-based; details: K12, nutrient agar, 37° C, 18 hours
Method: as §2, §3

[16] = test system: Klebsiella pneumoniae type 22 #3038; experiment: as above; assay type: cell-based; details: Klebsiella pneumoniae; nutrient agar, 37° C, 18 hours
Method: as §2, §3

[17] = test system: Pseudomonas aeruginosa A 3; experiment: as above; assay type: cell-based; details: A3, nutrient agar, 37° C, 18 hours
Method: as §2, §3

[18] = test system: Pseudomonas aeruginosa GN 315; experiment: as above; assay type: cell-based; details: GN315, nutrient agar, 37° C, 18 hours
Method: as §2, §3

[19] = test system: Pseudomonas aeruginosa No.12; experiment: as above; assay type: cell-based; details: nutrient agar, 37° C, 18 hours
Method: as §2, §3

[20] = test system: Pseudomonas aeruginosa TI-13; experiment: as above; assay type: cell-based; details: TI13, nutrient agar, 37° C, 18 hours
Method: as §2, §3

[21] = test system: Staphylococcus aureus FDA 209P; experiment: as above; assay type: cell-based; details: FDA209P, nutrient agar, 37° C, 18 hours
Method: as §2, §3

[22] = test system: Mycobacterium smegmatis ATCC 607; experiment: as above; assay type: cell-based; details: Mycolicibacterium smegmatis, ATCC607; nutrient agar, 37° C, 48 hours; read-out: Minimal inhibitory concentration
[23] = test system: gram-positive and gram-negative bacteria; experiment: Antibacterial activity (in words); assay type: cell-based; details: for antibacterial activity compared with parent or reference substance: sensitive (and resistant) bacteria; for antibacterial activity: various gram-positive and gram-negative bacteria, including resistant strains
Method: as §1

in vivo = details: mouse, iv
mice = experiment: Acute intravenous toxicity (LD50) in mice; details: in words
[24] = read-out: Minimal inhibitory concentration
[25] = read-out: minimum inhibitory concentrations
[26] = drug-resistant strain, read-out: minimum inhibitory concentrations

Compound: NC[C@H]1O[C@H](O[C@H]2[C@H](O[C@@H]3O[C@H](CO)[C@@H](O)[C@H]3O)[C@@H](O)[C@H](N)C[C@@H]2N)[C@H](N)[C@@H](O)[C@@H]1O [Ribostamycin, 5-0-β-D-ribofuranosyl-neamine]
- MIC [1]: 3.12 mg/L (≈ 6.87 µM)
- MIC [2]: > 100 mg/L
- MIC [3]: 1.56 mg/L (≈ 3.43 µM)
- MIC [4]: 50 mg/L (≈ 110 µM)
- MIC (Escherichia coli NIHJ): 6.25 mg/L (≈ 13.8 µM)
- MIC [5]: 1.56 mg/L (≈ 3.43 µM)
- MIC (Proteus rettgeri GN 311): 12.5 mg/L (≈ 27.5 µM)
- MIC (Proteus rettgeri GN 466): 6.25 mg/L (≈ 13.8 µM)
- MIC [6, 24]: > 100 mg/L
- MIC (Salmonella typhosa T-63): 1.56 mg/L (≈ 3.43 µM)
- MIC (Sarcina lutea PCI 1001): 100 mg/L (≈ 220 µM)
- MIC [7, 24]: > 100 mg/L
- MIC [8, 24]: 3.12 mg/L (≈ 6.87 µM)
- MIC [9, 24]: 3.12 mg/L (≈ 6.87 µM)
- MIC [10, 24]: 1.56 mg/L (≈ 3.43 µM)
- MIC [11, 24]: > 100 mg/L
- MIC [12, 24]: 3.12 mg/L (≈ 6.87 µM)
- MIC [13, 24]: > 100 mg/L
- MIC [14, 24]: > 100 mg/L
- MIC [15, 24]: 1.56 mg/L (≈ 3.43 µM)
- MIC (Escherichia coli K-12; [24]): 3.12 mg/L (≈ 6.87 µM)
- MIC [16]: > 100 mg/L
- MIC [17, 24]: > 100 mg/L
- MIC [18, 24]: > 100 mg/L
- MIC [19, 24]: > 100 mg/L
- MIC [20, 24]: > 100 mg/L
- MIC [21, 24]: 3.12 mg/L (≈ 6.87 µM)
- MIC [22]: 6.25 mg/L (≈ 13.8 µM)

Compound: NCC[C@H](O)C(=O)N[C@@H]1C[C@H](N)[C@@H](O[C@H]2O[C@H](CN)[C@@H](O)C[C@H]2N)[C@H](O)[C@H]1O [AHB-deoxyneamine, 1-N-[(S)-4-amino-2-hydroxybutyryl]-3'-deoxyneamine]
- MIC [7, 25]: 6.25 mg/L (≈ 15.3 µM)
- MIC [8, 25]: 6.25 mg/L (≈ 15.3 µM)
- MIC [12, 25]: 6.25 mg/L (≈ 15.3 µM)
- MIC [13, 26]: 6.25 mg/L (≈ 15.3 µM)
- MIC [15, 25]: 6.25 mg/L (≈ 15.3 µM)
- MIC [17, 25]: 6.25 mg/L (≈ 15.3 µM)
- MIC [18, 26]: > 100 mg/L
- MIC [19, 25]: 6.25 mg/L (≈ 15.3 µM)
- MIC [21, 25]: 3.12 mg/L (≈ 7.66 µM)
- antibacterial activity compared with parent or reference substance [23]: antibacterial activity as high as that of their parent substances
- antibacterial activity [23]: high antibacterial activity against the kanamycin-resistant strains
- LD50 (in vivo): > 100 mg/kg
- toxicity (mice): toxicity as low as that of their parent substances

Compound: NCC[C@H](O)C(=O)N[C@@H]1C[C@H](N)[C@@H](O[C@H]2O[C@H](CN)[C@@H](O)C[C@H]2N)[C@H](O[C@@H]2O[C@H](CO)[C@@H](O)[C@H]2O)[C@H]1O [AHB-deoxyribostamycin, 1-N-[(S)-4-amino-2-hydroxybutyryl]-3'-deoxyribostamycin]
- MIC [7, 25]: 3.12 mg/L (≈ 5.78 µM)
- MIC [8, 25]: 1.56 mg/L (≈ 2.89 µM)
- MIC [12, 25]: 0.78 mg/L (≈ 1.45 µM)
- MIC [13, 26]: 1.56 mg/L (≈ 2.89 µM)
- MIC [15, 25]: 0.78 mg/L (≈ 1.45 µM)
- MIC [17, 25]: 1.56 mg/L (≈ 2.89 µM)
- MIC [18, 26]: > 100 mg/L
- MIC [19, 25]: 3.12 mg/L (≈ 5.78 µM)
- MIC [21, 25]: 1.56 mg/L (≈ 2.89 µM)
- antibacterial activity compared with parent or reference substance [23]: antibacterial activity as high as that of their parent substances
- antibacterial activity [23]: high antibacterial activity against the kanamycin-resistant strains
- LD50 (in vivo): > 100 mg/kg
- toxicity (mice): toxicity as low as that of their parent substances

Compound: NCC[C@H](O)C(=O)N[C@@H]1C[C@H](N)[C@@H](O[C@H]2O[C@H](CN)CC[C@H]2N)[C@H](O)[C@H]1O[C@H]1O[C@H](CO)[C@@H](O)[C@H](N)[C@H]1O [AHB-dideoxykanamycin B, 1-N-[(S)-4-amino-2-hydroxy-n-butyryl]-3',4'-dideoxykanamycin B]
- MIC [6, 25]: 12.5 mg/L (≈ 22.6 µM)
- MIC [7, 25]: 1.56 mg/L (≈ 2.82 µM)
- MIC [8, 25]: 0.78 mg/L (≈ 1.41 µM)
- MIC [9, 25]: 0.39 mg/L (≈ 0.706 µM)
- MIC [10, 25]: 0.78 mg/L (≈ 1.41 µM)
- MIC [11, 25]: 1.56 mg/L (≈ 2.82 µM)
- MIC [12, 25]: 0.78 mg/L (≈ 1.41 µM)
- MIC [13, 26]: 0.78 mg/L (≈ 1.41 µM)
- MIC [14, 25]: 0.78 mg/L (≈ 1.41 µM)
- MIC [15, 25]: 0.39 mg/L (≈ 0.706 µM)
- MIC (Escherichia coli K-12; [25]): 0.78 mg/L (≈ 1.41 µM)
- MIC [17, 25]: 3.12 mg/L (≈ 5.65 µM)
- MIC [19, 25]: 1.56 mg/L (≈ 2.82 µM)
- MIC [20, 25]: 3.12 mg/L (≈ 5.65 µM)
- MIC [21, 25]: 0.78 mg/L (≈ 1.41 µM)
- antibacterial activity compared with parent or reference substance [23]: stronger antibacterial activity than those of kanamycin A and 3',4'-dideoxykanamycin B
- antibacterial activity [23]: high antibacterial activity against drug-resistant strains such as Staphylococcus aureus, Escherichia coli and Pseudomonas aeruginosa strains which are resistant to kanamycin and DKB
- LD50 (in vivo): > 150 mg/kg
- toxicity (mice): toxicity as low as that of kanamycin
